Measurements published in patent US20030157640A1, “Aequorin as a growth marker in yeast” (priority 2001, published 2003).

What was measured:
pheromone receptor Ste2 [1] = biological target: T1, pheromone receptor Ste2 (Saccharomyces cerevisiae, UniProt D6VTK4); assay: Pheromone pathway activity reporter assay, 4PRE-Aequorin reporter in yeast; format: cell-based
T1 construct: As a yeast strain W303 MAT a, far::hisG, sst2::URA3^FOA, fus1::HIS3 was used; endogenous in cells; host or cells: yeast strain W303 MATa far::hisG sst2::URA3^FOA fus1::HIS3, transformed with reporter plasmid p78 4PRE-AEQ or p78 4PRE-LacZ
T1 sequence (D6VTK4 1-431): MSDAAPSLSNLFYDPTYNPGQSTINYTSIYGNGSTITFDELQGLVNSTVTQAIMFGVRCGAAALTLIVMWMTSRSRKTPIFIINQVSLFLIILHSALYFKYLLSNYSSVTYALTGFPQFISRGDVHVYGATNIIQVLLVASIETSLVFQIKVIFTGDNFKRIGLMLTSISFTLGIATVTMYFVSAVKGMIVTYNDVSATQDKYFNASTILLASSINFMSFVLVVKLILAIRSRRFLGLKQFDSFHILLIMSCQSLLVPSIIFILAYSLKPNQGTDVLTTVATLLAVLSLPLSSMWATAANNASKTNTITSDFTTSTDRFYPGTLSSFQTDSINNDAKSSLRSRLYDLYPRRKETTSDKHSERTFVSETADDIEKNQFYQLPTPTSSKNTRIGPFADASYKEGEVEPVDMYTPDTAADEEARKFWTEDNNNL
Protocol: (§1) As a yeast strain W303 MAT a, far::hisG, sst2::URA3^FOA, fus1::HIS3 was used.
The cells are distributed and/or grown in a white 96-well plate, in a volume of 100 μl.
30 minutes before the measurement time point, 10 μl of a 5 μM coelenterazine (Molecular Probes) solution is distributed in each well (to obtain a 0.5 μM final concentration) to load the cells.
The plate is then incubated at 30° C. for the last 30 minutes.
Aequorin detection is made in a luminometer with injecting system (Luminoskan, Labsystems). For each well, immediately after injection of a 10 mM CaCl2 solution (1M CaCl2 diluted in lysis buffer Y-PER from Pierce), the luminescent signal is integrated for 15 seconds.
To avoid the intermediate step of loading, it is possible to introduce coelenterazine in the medium at the beginning of the assay: coelenterazine is added at a concentration of 0.5 μM.
(§2) In this assay, the expression of the two reporter genes depends on the activity of the pheromone mating pathway (Leberer et al., 1997). The minimal promoter 4PRE amplified from the FUS1 promoter region (Hagen et al., 1991) is activated only in case of a mating signal. This signal is elicited by stimulation of the pheromone receptor Ste2 by its ligand α-factor.
(§3) Three colonies of the yeast strain transformed with either p78 4PRE-AEQ or p78 4PRE-LacZ plasmids were grown in the appropiate medium (SC Glucose—Trp) to stationary phase and then diluted in the same medium (with 0.5 μM coelenterazin for the aequorin strain) containing 0; 10^−7; 10^−9; 10^−11M α-factor (Sigma). The plates were then shaken at 30° C., 700 r.p.m., for 3, 6 and 24 hours.
(§4) To allow the comparison between the two reporters and the different stimulation times, the measured detection numbers of Aequorin (FIG. 5) and β-Galactosidase (FIG. 6) are expressed as a ratio: stimulated/non stimulated.

pheromone receptor Ste2 [2] = biological target: T1, pheromone receptor Ste2; assay: Pheromone pathway activity reporter assay, 4PRE-LacZ (β-Galactosidase) reporter in yeast; format: cell-based
Protocol: as §1
The cells are distributed and/or grown in a white 96-well plate, in a volume of 100 μl. At the measurement time point, each well receives 100 μl of a β-Galactosidase detection mix (Gal-screen, Tropix).
The plate is incubated for one hour at 28° C.
β-Galactosidase signal is read in a luminometer; the luminescent signal is integrated for 0.5 seconds.
as §2, §3, §4

GPCR Ste2 = biological target: T2, GPCR Ste2 (Saccharomyces cerevisiae, UniProt D6VTK4); conditions: yeast cell, basal level approximately 100 nM; Iida et al., 1990; cited from earlier work
T2 construct: The addition of α-factor to a yeast cell (i.e. stimulation of the GPCR Ste2) raises [Ca^2+]i
T2 sequence (D6VTK4 1-431): T1 sequence (D6VTK4 1-431)

[3] = 1 nM α-factor, 3 hours of stimulation
[4] = 1 nM α-factor, 6 hours of stimulation
[5] = 100 nM α-factor, 3 hours of stimulation
[6] = 100 nM α-factor, 6 hours of stimulation

Q: Which results are given for α-factor?
A: Aequorin detection ratio stimulated/non stimulated (pheromone receptor Ste2 [1]; [3]): 8; Aequorin detection ratio stimulated/non stimulated (pheromone receptor Ste2 [1]; [4]): 11; Aequorin detection ratio stimulated/non stimulated (pheromone receptor Ste2 [1]; [5]): 24; Aequorin detection ratio stimulated/non stimulated (pheromone receptor Ste2 [1]; [6]): 36; β-Galactosidase detection ratio stimulated/non stimulated (pheromone receptor Ste2 [2]; [3]): 4; β-Galactosidase detection ratio stimulated/non stimulated (pheromone receptor Ste2 [2]; [4]): 7; β-Galactosidase detection ratio stimulated/non stimulated (pheromone receptor Ste2 [2]; [5]): 7; β-Galactosidase detection ratio stimulated/non stimulated (pheromone receptor Ste2 [2]; [6]): 7; [Ca2+]i after addition of α-factor (GPCR Ste2): a few hundred
